Results on 89 compounds are retold here after a melting point compilation (Tetko et al.; mined from patent text by program, amines drawn as free bases though some values may be those of a salt).

A word on the melting point: it is the temperature of the solid-liquid transition.

For the compound `CCN1CCN(CCCOc2cc3ncc(C#N)c(Nc4cc(OC)c(Cl)cc4Cl)c3cc2OC)CC1`, the melting point fell in the range of 102 to 104 °C.
In turn, `Oc1cccc(-c2nc3ccccc3s2)c1` displayed a melting point of 110 °C.
In turn, `Cn1ncc2c3cc(Cl)c(Cl)cc3n(C3OC(CO)C(O)C3O)c21` (centres undefined) registered a melting point of 135 to 138 °C.
Regarding `Nc1cc2[nH]c(=O)[nH]c2c2ccccc12`, the melting point lay in the range of 295 to 296 °C.
The compound `COC(=O)c1cc([N+](=O)[O-])cc([N+](=O)[O-])c1SCc1ccccc1` returned a melting point of 113 to 114 °C.
`Cc1c(-c2ccncc2)[nH]c2ccc(C3=NNC(=O)CC3C)cc12` (centres undefined) yielded a melting point of 233 to 235 °C.
On to `CCOC(=O)c1sc2cc(OCc3ccccc3)ccc2c1Sc1ccccc1`, for which the melting point lay within 96 to 97 °C.
`CCCCCCOc1nc(O)ns1`: the melting point came to 61 °C.
As to `CCN(CC)CCOc1ccc(Nc2ncc3c(n2)N(c2ccccc2)C(=O)N(c2ccc(Cl)cc2Cl)C3)cc1`, the melting point is 106 to 108 °C.
Compound `CCCCCc1ccc(C(=O)Cc2cccc(C(=O)O)c2)cc1` gave a melting point of 109 to 111 °C.
Regarding `O=C1Cc2cc(OCCN3CCC(Cc4ccc(F)cc4)CC3)ccc2N1`, the melting point was 149 to 150 °C.
For `C=CCc1c(O)cc(C)c(O)c1C` the value was 114 to 116 °C.
In turn, `COCOc1ccc(C=C2CCCC(=Cc3ccc(OCOC)c(OC)c3)C2=O)cc1OC` came in with a melting point of 73 to 75 °C.
`Cc1nc(Cl)c(C#N)c(NCc2cccnc2)n1` showed a melting point of 165 to 167 °C.
In the case of `COc1ccc(Nc2ncccc2NS(=O)(=O)c2ccc(OC)cc2)cc1`, the melting point is 145 to 147 °C.
For the compound `C=C(C)C(=O)OCCCCOc1ccc(C(=O)Cl)cc1`, the melting point lay within 30 to 31 °C.
`Cc1[nH]cc2c(=O)n(-c3ccc(Cl)cc3)nc-2c1-c1cccc(C(=O)N2CCCC2)c1`: the melting point was in the range of 253 to 255 °C.
For `CC(CN1CCCC1)N1c2ccc(Cl)cc2Sc2ccc(C3=NC4CCCCC4N3)cc21` (racemic) the value was 120 °C; for `COc1ccc(C2Nc3ccc(Cl)cc3C(C#CC3CC3)(C(F)(F)F)O2)cc1` (centres undefined), 130 to 132 °C; for `CCOC(=O)C(=O)Nc1nc(CN2CCN(C(c3ccccc3)c3ccccc3)CC2)c(Cl)s1`, 154 to 156 °C.
Compound `CC1(S(C)(=O)=O)C(I)=C(S(C)(=O)=O)C=CC1C(=O)O` (centres undefined) yielded a melting point of 66 to 67 °C.
In turn, `NC(=O)[C@H]1CCCN1C(c1ccccc1)(c1ccccc1)c1ccccc1` displayed a melting point of 162 °C.
Compound `CC(C)CN1CCN(C(=O)c2ccc(OCc3ccccc3)cc2)CC1` gave a melting point of 77.6 to 78.4 °C.
The value for `CC(=O)Nc1ccccc1NS(=O)(=O)c1cc(C(=O)O)cc(NCc2ccccc2)c1Oc1ccccc1` was 197 to 200 °C; that for `CCOc1ccccc1C1CC(C(C)(C)C)=NN1c1ccc(C(=O)O)cc1` (centres undefined) was 213 °C.
Compound `COc1ccc(Cl)cc1S(=O)(=O)N1C2CCC1CN(CC(=O)Nc1ccccc1C)C2` showed a melting point of 180 to 181 °C.
The value for `CCN1c2ncc(CC(OC(C)=O)c3ccncc3)cc2C(=O)N(C)c2ccc(Cl)nc21` (centres undefined) was 157 to 158 °C; that for `COC(=O)Cc1cccc(OCc2nc(CCc3nc(-c4ccccc4)oc3C)no2)c1` was 76 to 77 °C; that for `Cn1cc2c(=O)[nH]c(=O)[nH]c2n1` was 200 °C.
As to `NC(=O)NN=Cc1ccc(Oc2ccc3c(c2)CCC3)cc1`, the melting point fell in the range of 218 to 220 °C.
`COCC(C)(C)NC(=O)C(OC)Oc1ccc2ccc(Br)cc2c1` (centres undefined) gave a melting point of 65 to 67 °C.
As for `CC1(C)CN=C2N(C1)c1ccc(C(=O)O)cc1C21OCCCO1`, the melting point lay within 151 to 153 °C.
The value for `Nc1ncnc2[nH]cc(-c3ccccc3)c12` was 238 to 239 °C; that for `O=S1(=O)N=C(NC2CCC2)Nc2cc(Cl)c(Cl)cc21` was 320 to 326 °C; that for `CN1C(=O)N(c2ccccc2)C(=O)C1=NC(Cl)C(Cl)(Cl)Cl` (centres undefined) was 158 to 160 °C.
Compound `CCn1c(C)nc2cc(C(=O)OC)ccc21` displayed a melting point of 118 to 121 °C.
In turn, `N#Cc1ccc(-c2ccc(-c3ccc(C#N)cc3)o2)cc1` returned a melting point of 294 to 295 °C.
Compound `Cn1cc(C(=O)c2ccc(Cl)cc2)cc1C(=O)c1ccc(Cl)nc1` displayed a melting point of 150 to 152 °C.
`COCCOc1cc2ncnc(NC3=CC(=O)C4(Cc5ccccc5)OC4C3=O)c2cc1OC` (centres undefined) came in with a melting point of 104 to 108 °C.
In the case of `COc1ccc(CS(=O)CC(=O)NO)cc1` (centres undefined), the melting point was determined as 160 °C.
Take `CN1CCN(c2cc3c(cc2C(F)(F)F)[nH]c(=O)c2n[nH]c(=O)n23)CC1`: the melting point is above 300 °C.
The value for `CN1c2ccc(F)cc2C(c2ccccc2)=NCC1CCl` (centres undefined) was 173 to 188 °C; that for `CCc1nn(-c2c(Cl)cc(Cl)cc2Cl)c(N)c1C(N)=O` was 186 to 188 °C.
The compound `CCCCCCCCCCCCCCCC(=O)OC(CCCCCCCCCCCCCC)C(=O)N[C@H](C(=O)N[C@@H](CCC(=O)O)C(=O)O)C(C)C` (some centres undefined) displayed a melting point of 101 to 103 °C.
In turn, `NC(=O)C1CCN(C(c2ccccc2)c2ccccc2)CC1` displayed a melting point of 150 °C.
For `O=C1Nc2cc(Cl)cc(Cl)c2C1c1cc(Cl)ccc1O` (centres undefined) the value was 238 to 240 °C; for `C=CCCOc1ccc(CCCO)c(Oc2ncc(C(F)(F)F)cc2Cl)c1`, 75.2 to 75.8 °C.
The value for `O=Cc1cccnc1Oc1ccc(Cl)c(Cl)c1` was 97 to 99 °C.
In turn, `CN1CCCC1=NC(=O)Nc1ccc(Cl)cc1` registered a melting point of 138 to 141 °C.
With `CCN(CC)C(=O)CNC1(c2ccccc2Cl)C(=O)Nc2ccc(Cl)cc21` (centres undefined), the melting point came out at 223 °C.
In turn, `COC(=O)c1ccc(NCc2ccc(Cl)c(Cl)c2)cn1` came in with a melting point of 158 to 161 °C.
`O=c1[nH]c2scnc2c2c(O)cccc12` displayed a melting point above 250 °C.
As to `Cn1ccnc1Sc1ncc([N+](=O)[O-])n1C`, the melting point was in the range of 123 to 124 °C.
Take `CCOC(=O)c1c(C(F)(F)F)nc(C(F)F)c(C(=O)OC)c1OC(C)C`: the melting point lay within 29 to 31 °C.
`CNCC1CCN(c2c(F)cc3c(=O)c(C(=O)O)cn(C4CC4)c3c2OC)C1` (centres undefined) came in with a melting point of 226 to 230 °C.
The compound `CN(Cc1ccc(NC(=O)C2=Cc3cc(-c4ccc(C(F)(F)F)cc4)ccc3S(=O)(=O)CC2)cc1)C1CCOCC1` showed a melting point of 270 to 272 °C.
Consider `CSc1ccccc1C(=N)N1CCN(CCc2cc3c(cc2Cl)NC(=O)C3)CC1`, for which the melting point fell in the range of 103 to 106 °C.
The compound `O=C1CN(Cc2n[nH]c(=O)[nH]2)[C@@H](c2ccccc2)[C@@H](COCc2cc(C(F)(F)F)cc(C(F)(F)F)c2)N1` showed a melting point of 138 to 140 °C.
The compound `Cc1cc2c(s1)SCCc1cc(=O)n(-c3ccc(Cl)cc3)nc1-2` returned a melting point of 150 to 151 °C.
The value for `Cc1ccc(Cl)cc1N1CCCN(C)C1=S` was 143 to 145 °C; that for `COc1cnc(C#N)c(C)c1` was 80 to 81 °C; that for `COc1ccc2c(cc(C)n2-c2ncnc3cc(Cl)ccc23)c1CC(=O)O` was 110 to 112 °C.
For `CCOC(=O)C(Cl)=Cc1cccc([N+](=O)[O-])c1` the value was 75 °C; for `CC1(C)Oc2ccc(C#N)cc2C(Oc2ccnc(O)c2)C1O` (centres undefined), 249 to 250 °C; for `CC(C)(C)OC(=O)NCc1[nH]c(=O)c2ccc(C#N)cc2c1-c1ccc(Cl)cc1`, 234 to 235 °C.
Regarding `CC(Oc1cccc(Oc2c(Cl)cc(C(F)(F)F)cc2Cl)c1)(C(=O)Cl)[N+](=O)[O-]` (centres undefined), the melting point amounted to 92 °C.
Consider `COC(=O)Nc1nc2cc(C3(c4ccccc4)OCC(C)(C)CO3)ccc2[nH]1`, for which the melting point came out at 224 °C.
In the case of `COC(=O)c1cccc(CNC(C)=O)c1C(=O)OC`, the melting point lay in the range of 177 to 179 °C.
In turn, `O=C(O)c1cc(-c2ccccc2)c(=O)n2c1-c1sccc1C2` showed a melting point above 300 °C.
With `Cc1cccc(O[C@@H]2CCNC[C@H]2O)c1C` (relative stereo), the melting point lay in the range of 127 to 129 °C.
For `CC(C)CCC(=O)NC[C@H](O)[C@H](O)[C@H](CC1CCCCC1)NC(=O)OC(C)(C)C` the value was 179 to 183 °C; for `CC(C)(C)CCC(=O)c1ccc2cc(-c3ccc4c(Br)c(OCC(=O)O)ccc4c3)sc2c1`, 246 to 247 °C.
For `N#Cc1ccc(Oc2ccc3ccc(Oc4ccc(C#N)c(C#N)c4)cc3c2)cc1C#N` the value was 201 to 204 °C.
In the case of `C(=Cc1ccc(-c2cnc(CSCCOc3ccccc3)o2)cc1)CN1CCCC1`, the melting point lay in the range of 73 to 75 °C.
For `CC(C)(C)N1C(=O)C2Cc3[nH]cnc3CN2C1=O` (centres undefined) the value was 156 to 158 °C; for `COC(=O)C1(CCCCCCCCCCCCC2(C(=O)NS(C)(=O)=O)CC2)CC1`, 53.5 to 54.5 °C.
The compound `CCOc1nn(-c2ccc(C(F)(F)F)cn2)cc1CCCO` showed a melting point of 85 to 86 °C.
`CCN1CCC(c2ccc(Br)cc2)CC1` had a melting point of 33 to 34 °C.
`COc1ccc(-c2nc(C(F)F)oc2-c2ccc(OCCO)cc2)cc1` displayed a melting point of 114 to 116 °C.
In turn, `CC[C@H](C)[C@H](NC(=O)N(C)Cc1ccccn1)C(=O)N[C@@H](Cc1ccccc1)[C@@H](O)C[C@H](Cc1ccccc1)NC(=O)OCc1cncs1` came in with a melting point of 66 to 69 °C.
For `Cc1c2c(c(Cc3ccc(C(C)C)cc3)c(C)c1NCc1ccccc1)OCC2` the value was 115 to 116 °C.
Consider `CS(=O)(=O)c1ccc(-c2cc(C#N)c(Br)nc2-c2ccc(F)cc2)cc1`, for which the melting point was in the range of 230 to 232 °C.
`CC(=O)Nc1cc(C)c2c(c1O)C(=O)CC2` yielded a melting point of 193 to 198 °C.
Consider `CCn1c(=O)c(C(N)=O)c(O)c2ccc(C)nc21`, for which the melting point was in the range of 240 to 242 °C.
Take `CCCCCCCNC(=O)Nc1ccccc1C(=O)Nc1ccccn1`: the melting point stood at 118 °C.
In turn, `CC(C)C(=O)C1(S(=O)(=O)c2ccc(O)cc2)CC1` displayed a melting point of 111 to 112 °C.
With `CCn1cc(C(=O)O)c(=O)c2c(C)c(F)c(F)c(F)c21`, the melting point was in the range of 203 to 204 °C.
For `C/C=C/c1cc(OC)c2c(c1)[C@@H](C)[C@H](c1cc(CO)c(O)c(OC)c1)O2` (relative stereo), the melting point lay within 117 to 119 °C.
The value for `N#Cc1ccc(C=NO)c(F)c1` was 179 to 182 °C.
